# Data reported in ChEMBL document CHEMBL1201862, “PubChem BioAssay data set” (2004).
# Activity calls are given as the source filed them.
# What was measured:
# Cytochrome P450 1A2 = target: T1, Cytochrome P450 1A2 (Homo sapiens, UniProt P05177);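 also: PubChem cytochrome P450 panel assay, CYP1A2 panel member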
# T1 sequence (P05177 whole entry): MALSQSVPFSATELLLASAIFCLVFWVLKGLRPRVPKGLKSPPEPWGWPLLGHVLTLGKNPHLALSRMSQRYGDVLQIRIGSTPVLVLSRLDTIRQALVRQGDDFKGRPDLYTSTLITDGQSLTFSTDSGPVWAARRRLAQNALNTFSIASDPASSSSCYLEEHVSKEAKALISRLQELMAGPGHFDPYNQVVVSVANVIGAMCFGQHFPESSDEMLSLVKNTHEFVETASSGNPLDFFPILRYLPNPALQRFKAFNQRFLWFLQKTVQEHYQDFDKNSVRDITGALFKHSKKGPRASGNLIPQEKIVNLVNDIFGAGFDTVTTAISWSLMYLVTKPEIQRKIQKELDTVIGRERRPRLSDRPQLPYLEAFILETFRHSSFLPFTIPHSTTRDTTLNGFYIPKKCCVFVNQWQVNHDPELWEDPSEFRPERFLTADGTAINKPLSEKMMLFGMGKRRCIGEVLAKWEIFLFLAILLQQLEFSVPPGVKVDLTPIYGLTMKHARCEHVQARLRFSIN
# [1] = target: Voltage-dependent T-type calcium channel subunit alpha-1H (Homo sapiens, UniProt O95180); experiment: Cav3.2 T-type channel blockers, cell-based, SynthLib3 library, HEK293 Cav3.2, fluorescence (AID 493041); format: functional
# [2] = cytotoxicity toward DRD oncogenic fibroblasts, dose response, cell-based, non-viral oncogenic, luminescence (AID 1934); format: functional; details: Homo sapiens
# Vero = experiment: cells; format: functional; details: Chlorocebus sabaeus
# Exodeoxyribonuclease V = Exodeoxyribonuclease V (Escherichia coli (strain K12), UniProt P04993+P07648+P08394); experiment: E. coli RecBCD inhibitors, dose response, counter-screen for AddAB inhibitor project, absorbance, V66 E. coli, mutant T4 phage (AID 492957); format: functional, cell-based, Escherichia coli str. K-12 substr. MG1655
# [3] = Counterscreen for AddAB inhibitors: absorbance-based bacterial cell-based high throughput dose response assay for inhibitors of bacterial viability. [Related pubchem assays (depositor defined):AID435030, AID449728, AID449731, AID488942, AID488955, AID488956]; format: functional
# BJ [4] = experiment: cytotoxicity toward BJ-TERT-LT-ST fibroblasts, dose response, cell-based, RAS-independent, luminescence (AID 1935); format: functional; details: Homo sapiens;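 also: BJ fibroblasts immortalized with TERT plus LT and ST oncogenes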
# BJ [5] = experiment: cytotoxicity toward BJ-TERT fibroblasts, dose response, cell-based, RAS-independent, luminescence (AID 1933); format: functional; details: Homo sapiens
# Estrogen receptor = target: T2, Estrogen receptor (Homo sapiens, UniProt P03372);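 also: potency for inhibiting coactivator peptide recruitment to the receptor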
# T2 sequence (P03372 whole entry): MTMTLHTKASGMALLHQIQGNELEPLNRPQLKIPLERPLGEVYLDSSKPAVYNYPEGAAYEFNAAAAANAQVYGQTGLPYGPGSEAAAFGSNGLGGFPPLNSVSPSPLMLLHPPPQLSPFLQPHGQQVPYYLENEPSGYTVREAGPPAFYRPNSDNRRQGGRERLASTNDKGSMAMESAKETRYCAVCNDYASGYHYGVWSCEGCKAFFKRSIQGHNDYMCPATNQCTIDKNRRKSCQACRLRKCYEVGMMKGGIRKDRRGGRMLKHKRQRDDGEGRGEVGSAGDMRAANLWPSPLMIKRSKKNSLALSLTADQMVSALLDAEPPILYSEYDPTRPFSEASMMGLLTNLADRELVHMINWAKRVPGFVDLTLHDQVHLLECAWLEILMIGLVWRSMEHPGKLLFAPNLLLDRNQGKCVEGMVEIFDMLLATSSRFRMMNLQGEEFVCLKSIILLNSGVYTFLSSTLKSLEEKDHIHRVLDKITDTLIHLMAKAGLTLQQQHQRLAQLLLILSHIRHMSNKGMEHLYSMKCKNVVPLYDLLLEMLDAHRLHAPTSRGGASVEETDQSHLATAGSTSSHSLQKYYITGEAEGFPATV
# CAAX prenyl protease 1 = CAAX prenyl protease 1 (Saccharomyces cerevisiae S288c, UniProt P47154); experiment: Ste24 protease inhibitors, dose response, biochemical, S. cerevisiae, plate reader, cherry-pick (AID 488815)
# Trypsin = Trypsin (Sus scrofa, UniProt P00761); experiment: porcine trypsin inhibitors, dose response, selectivity assay for Rce1 protease inhibitor project, biochemical, quenched peptide fluorescence, cherry-pick (AID 488789)
# [6] = target: T3, Kappa-type opioid receptor (Homo sapiens, UniProt P41145); experiment: SAR analysis of small molecule agonists of the kappa opioid receptor via a luminescent beta-arrestin assay - Set 2. [Related pubchem assays (depositor defined):AID1777, AID1785, AID1786, AID1966, AID2133, AID2136, AID2284, AID449737]; format: functional
# [7] = target: T3, Kappa-type opioid receptor; experiment: SAR analysis of Antagonists of the Kappa Opioid Receptor (KOR) using an Image-Based Assay - Set 2. [Related pubchem assays (depositor defined):AID1777, AID1785, AID1786, AID1966, AID2133, AID2136, AID2284, AID2285, AID2348]; format: functional
# Mu-type opioid receptor [8] = target: T4, Mu-type opioid receptor (Homo sapiens, UniProt P35372); experiment: SAR Analysis of Antagonists of the MOR Receptor using an Image-Based Assay - Set 2. [Related pubchem assays (depositor defined):AID1777, AID1785, AID1786, AID1966, AID2133, AID2136, AID2284, AID2285, AID2420]; format: functional
# [9] = target: T3, Kappa-type opioid receptor; experiment: SAR analysis of Agonists of the Kappa Opioid Receptor (KOR) using an Image-Based Assay - Set 2. [Related pubchem assays (depositor defined):AID1777, AID1786, AID1966, AID2133, AID2136, AID2284, AID2285, AID2359]; format: functional
# [10] = target: T5, Delta-type opioid receptor (Homo sapiens, UniProt P41143); experiment: SAR Analysis of Agonists of the DOR Receptor using an Image-Based Assay - Set 2. [Related pubchem assays (depositor defined):AID1777, AID1785, AID1786, AID1966, AID2133, AID2136, AID2284, AID2285, AID2370]; format: functional
# Mu-type opioid receptor [11] = target: T4, Mu-type opioid receptor; experiment: SAR Analysis of Agonists of the MOR Receptor using an Image-Based Assay - Set 2. [Related pubchem assays (depositor defined):AID1777, AID1785, AID1786, AID1966, AID2133, AID2136, AID2284, AID2285, AID2352]; format: functional
# [12] = target: T5, Delta-type opioid receptor; experiment: SAR Analysis of Antagonists of the DOR Receptor using an Image-Based Assay - Set 2. [Related pubchem assays (depositor defined):AID1777, AID1785, AID1786, AID1966, AID2133, AID2136, AID2284, AID2285, AID2357]; format: functional
# [13] = cytotoxicity in MIN6 insulinoma cells, dose response, cytotoxicity control, cell-based, mouse insulinoma (AID 2122); format: functional;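 also: confirmatory high-throughput counterscreen run to flag cytotoxic compounds; mouse MIN-6 beta cells carrying an insulin promoter eGFP reporter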
# Large T antigen = Large T antigen (Simian virus 40, UniProt P03070); format: functional, Betapolyomavirus macacae;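 also: Confirmatory-stage PubChem screen for compounds that inhibit SV40 T antigen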
# H4 = experiment: Luminescence Cell-Based Dose Response HTS to Identify Activators of 5'UTR Stem-Loop Driven Prion Protein mRNA Translation in H4 Neuroglioblastoma Cells. [Related pubchem assays: 1829 (Project Summary), 1814 (Primary HTS)]; format: functional; details: Homo sapiens
# Protein Tat = Protein Tat (Human immunodeficiency virus type 1 group M subtype B (isolate HXB2)(HIV-1), UniProt P04608); format: functional;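 also: tat binding to TAR RNA read out by fluorescence polarization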
# [14] = target: T6, Rac GTPase-activating protein 1 (Homo sapiens, UniProt Q9H0H5); experiment: MgcRacGAP GTPase-activating activity inhibitors, confirmation, biochemical, ADP Hunter fluorescence, primary and confirmatory (AID 624330); format: functional
# T6 sequence (Q9H0H5 whole entry): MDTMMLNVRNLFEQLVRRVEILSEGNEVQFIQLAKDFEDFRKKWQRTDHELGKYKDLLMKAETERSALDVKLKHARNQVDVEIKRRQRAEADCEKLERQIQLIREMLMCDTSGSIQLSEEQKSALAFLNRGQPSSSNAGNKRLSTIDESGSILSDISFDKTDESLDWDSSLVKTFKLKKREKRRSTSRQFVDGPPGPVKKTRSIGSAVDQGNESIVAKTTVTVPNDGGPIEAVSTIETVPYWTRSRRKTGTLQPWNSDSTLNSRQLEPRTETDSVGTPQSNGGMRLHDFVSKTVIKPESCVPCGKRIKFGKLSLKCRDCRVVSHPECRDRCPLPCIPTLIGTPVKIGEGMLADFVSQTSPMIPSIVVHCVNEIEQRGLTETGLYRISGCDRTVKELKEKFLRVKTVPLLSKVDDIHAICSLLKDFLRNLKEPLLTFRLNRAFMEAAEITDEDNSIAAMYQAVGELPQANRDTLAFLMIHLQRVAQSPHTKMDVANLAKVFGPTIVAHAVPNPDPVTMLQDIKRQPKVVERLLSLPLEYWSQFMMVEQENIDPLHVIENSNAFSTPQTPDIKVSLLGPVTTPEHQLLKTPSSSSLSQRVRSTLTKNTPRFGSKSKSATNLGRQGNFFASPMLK
# [15] = target: Intestinal-type alkaline phosphatase (Homo sapiens, UniProt P09923); experiment: inhibition of human intestinal alkaline phosphatase – biochemical, dose response (AID 488876); format: functional
# [16] = target: Intestinal-type alkaline phosphatase (Mus musculus, UniProt P24822); experiment: PubChem AID 488785; format: functional
# [17] = insulin promoter down-regulators in MIN6 cells, imaging, high-content screening, mouse beta cells (AID 1628); format: functional
# [18] = THP-1 cell cytotoxicity, dose response, cytotoxicity control for Vif-APOBEC3G degradation inhibitor project, THP-1 cells (AID 1117359); format: functional; details: Human immunodeficiency virus 1, THP-1
# [19] = target: T7, Alkaline phosphatase, tissue-nonspecific isozyme (Homo sapiens, UniProt P05186); experiment: TNAP enzyme inhibition by screening hits, dose response, selectivity assay for mouse IAP inhibitor project, biochemical, human TNAP, uHTS hits (AID 488906); format: functional
# T7 sequence (P05186 whole entry): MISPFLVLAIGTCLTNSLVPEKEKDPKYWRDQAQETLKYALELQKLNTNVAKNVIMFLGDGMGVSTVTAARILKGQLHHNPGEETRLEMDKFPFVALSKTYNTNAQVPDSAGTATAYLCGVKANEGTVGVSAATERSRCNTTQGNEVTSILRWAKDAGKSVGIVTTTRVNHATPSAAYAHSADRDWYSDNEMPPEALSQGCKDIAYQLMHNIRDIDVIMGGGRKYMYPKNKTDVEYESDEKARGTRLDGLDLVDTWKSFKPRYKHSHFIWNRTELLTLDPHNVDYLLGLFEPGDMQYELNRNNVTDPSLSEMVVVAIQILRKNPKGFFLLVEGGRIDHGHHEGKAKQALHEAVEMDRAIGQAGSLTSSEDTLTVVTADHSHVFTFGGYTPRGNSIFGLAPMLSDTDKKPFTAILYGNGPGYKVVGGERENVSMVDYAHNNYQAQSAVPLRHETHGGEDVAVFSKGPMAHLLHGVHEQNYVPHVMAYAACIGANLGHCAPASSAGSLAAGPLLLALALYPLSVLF
# T3 sequence (P41145 whole entry): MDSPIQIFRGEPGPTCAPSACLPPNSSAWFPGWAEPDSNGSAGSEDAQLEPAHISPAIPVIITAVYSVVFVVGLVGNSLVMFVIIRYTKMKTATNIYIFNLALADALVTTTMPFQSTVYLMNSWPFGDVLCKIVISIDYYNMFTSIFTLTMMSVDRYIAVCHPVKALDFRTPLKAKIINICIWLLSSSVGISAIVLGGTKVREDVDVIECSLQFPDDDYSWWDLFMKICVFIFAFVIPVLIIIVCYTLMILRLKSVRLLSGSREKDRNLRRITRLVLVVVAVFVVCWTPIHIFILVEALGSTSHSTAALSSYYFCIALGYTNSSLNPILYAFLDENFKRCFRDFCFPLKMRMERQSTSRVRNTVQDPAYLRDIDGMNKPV
# T4 sequence (P35372 whole entry): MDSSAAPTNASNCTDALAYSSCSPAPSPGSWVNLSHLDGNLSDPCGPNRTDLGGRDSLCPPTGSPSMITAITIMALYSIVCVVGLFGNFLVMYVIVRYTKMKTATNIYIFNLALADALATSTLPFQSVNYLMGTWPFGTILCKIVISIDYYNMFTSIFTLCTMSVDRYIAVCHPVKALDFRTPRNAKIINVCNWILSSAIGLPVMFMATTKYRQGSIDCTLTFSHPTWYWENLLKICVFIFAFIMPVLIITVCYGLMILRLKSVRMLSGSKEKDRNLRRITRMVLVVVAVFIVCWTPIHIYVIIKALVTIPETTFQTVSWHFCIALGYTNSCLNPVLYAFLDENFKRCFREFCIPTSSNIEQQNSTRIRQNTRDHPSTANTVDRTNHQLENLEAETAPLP
# T5 sequence (P41143 whole entry): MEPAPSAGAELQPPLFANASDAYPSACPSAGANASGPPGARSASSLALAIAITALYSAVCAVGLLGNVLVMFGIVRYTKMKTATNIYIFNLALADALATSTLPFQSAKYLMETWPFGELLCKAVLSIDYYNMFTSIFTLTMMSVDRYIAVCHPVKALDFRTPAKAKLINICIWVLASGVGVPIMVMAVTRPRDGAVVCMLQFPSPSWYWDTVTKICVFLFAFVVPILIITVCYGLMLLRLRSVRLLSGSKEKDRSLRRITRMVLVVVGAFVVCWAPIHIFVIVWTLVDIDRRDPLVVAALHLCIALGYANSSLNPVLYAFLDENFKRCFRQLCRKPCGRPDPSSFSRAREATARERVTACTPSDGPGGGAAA
# Large T antigen, sequence (P03070 whole entry): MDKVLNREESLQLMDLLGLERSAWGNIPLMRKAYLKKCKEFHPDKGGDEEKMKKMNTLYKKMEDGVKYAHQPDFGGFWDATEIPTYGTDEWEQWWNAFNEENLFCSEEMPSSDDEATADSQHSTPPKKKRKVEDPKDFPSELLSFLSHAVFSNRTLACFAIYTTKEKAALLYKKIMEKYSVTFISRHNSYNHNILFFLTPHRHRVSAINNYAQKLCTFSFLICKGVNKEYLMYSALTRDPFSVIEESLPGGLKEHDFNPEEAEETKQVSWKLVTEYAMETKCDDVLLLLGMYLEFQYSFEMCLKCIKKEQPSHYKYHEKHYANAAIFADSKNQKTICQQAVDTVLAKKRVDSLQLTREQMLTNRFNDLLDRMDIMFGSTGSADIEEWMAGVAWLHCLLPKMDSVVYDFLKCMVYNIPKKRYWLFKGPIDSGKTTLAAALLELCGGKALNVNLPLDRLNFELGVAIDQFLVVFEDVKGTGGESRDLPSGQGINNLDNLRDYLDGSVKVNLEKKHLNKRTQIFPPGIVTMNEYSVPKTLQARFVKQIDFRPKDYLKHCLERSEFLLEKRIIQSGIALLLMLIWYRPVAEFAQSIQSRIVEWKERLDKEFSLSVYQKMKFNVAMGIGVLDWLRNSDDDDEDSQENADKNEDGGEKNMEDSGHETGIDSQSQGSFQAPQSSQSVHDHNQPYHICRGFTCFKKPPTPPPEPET
# Intestinal-type alkaline phosphatase (Homo sapiens, UniProt P09923), sequence (P09923 whole entry): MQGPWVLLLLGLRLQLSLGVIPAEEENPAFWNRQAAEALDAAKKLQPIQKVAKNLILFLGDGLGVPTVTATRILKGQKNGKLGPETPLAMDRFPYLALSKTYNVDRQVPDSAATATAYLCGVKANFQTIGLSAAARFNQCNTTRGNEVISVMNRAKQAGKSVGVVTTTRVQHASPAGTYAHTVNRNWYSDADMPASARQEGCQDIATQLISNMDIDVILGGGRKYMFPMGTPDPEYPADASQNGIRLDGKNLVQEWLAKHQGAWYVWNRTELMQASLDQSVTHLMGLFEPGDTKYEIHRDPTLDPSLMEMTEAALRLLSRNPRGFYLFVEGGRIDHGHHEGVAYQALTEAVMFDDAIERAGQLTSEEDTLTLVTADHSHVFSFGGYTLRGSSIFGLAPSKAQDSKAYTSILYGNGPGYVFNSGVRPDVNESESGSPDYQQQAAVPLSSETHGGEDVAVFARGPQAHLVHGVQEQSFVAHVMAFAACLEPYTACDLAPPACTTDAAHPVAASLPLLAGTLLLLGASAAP
# CAAX prenyl protease 1, sequence (P47154 whole entry): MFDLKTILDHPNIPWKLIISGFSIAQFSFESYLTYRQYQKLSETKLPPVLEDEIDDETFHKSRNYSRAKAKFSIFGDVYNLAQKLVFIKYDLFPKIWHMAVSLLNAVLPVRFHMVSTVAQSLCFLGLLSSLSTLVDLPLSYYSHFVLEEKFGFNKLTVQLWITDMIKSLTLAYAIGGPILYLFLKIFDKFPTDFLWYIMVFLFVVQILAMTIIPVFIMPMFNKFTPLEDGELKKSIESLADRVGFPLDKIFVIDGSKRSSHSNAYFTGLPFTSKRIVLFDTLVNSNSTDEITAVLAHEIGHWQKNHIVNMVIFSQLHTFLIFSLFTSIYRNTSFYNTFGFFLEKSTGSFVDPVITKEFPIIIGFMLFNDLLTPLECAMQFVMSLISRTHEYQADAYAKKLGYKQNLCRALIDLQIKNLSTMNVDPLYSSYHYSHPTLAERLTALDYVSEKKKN
# Trypsin, sequence (P00761 whole entry): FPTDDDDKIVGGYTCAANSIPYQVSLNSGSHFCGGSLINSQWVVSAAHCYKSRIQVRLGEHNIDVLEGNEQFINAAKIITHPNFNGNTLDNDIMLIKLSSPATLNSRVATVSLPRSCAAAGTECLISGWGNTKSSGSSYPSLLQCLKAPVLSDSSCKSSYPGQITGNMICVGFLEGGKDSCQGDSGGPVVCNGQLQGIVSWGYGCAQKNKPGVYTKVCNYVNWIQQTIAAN
# Protein Tat, sequence (P04608 whole entry): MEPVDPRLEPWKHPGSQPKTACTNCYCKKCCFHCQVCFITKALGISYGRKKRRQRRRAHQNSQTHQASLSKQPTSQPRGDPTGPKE
# Intestinal-type alkaline phosphatase (Mus musculus, UniProt P24822), sequence (P24822 whole entry): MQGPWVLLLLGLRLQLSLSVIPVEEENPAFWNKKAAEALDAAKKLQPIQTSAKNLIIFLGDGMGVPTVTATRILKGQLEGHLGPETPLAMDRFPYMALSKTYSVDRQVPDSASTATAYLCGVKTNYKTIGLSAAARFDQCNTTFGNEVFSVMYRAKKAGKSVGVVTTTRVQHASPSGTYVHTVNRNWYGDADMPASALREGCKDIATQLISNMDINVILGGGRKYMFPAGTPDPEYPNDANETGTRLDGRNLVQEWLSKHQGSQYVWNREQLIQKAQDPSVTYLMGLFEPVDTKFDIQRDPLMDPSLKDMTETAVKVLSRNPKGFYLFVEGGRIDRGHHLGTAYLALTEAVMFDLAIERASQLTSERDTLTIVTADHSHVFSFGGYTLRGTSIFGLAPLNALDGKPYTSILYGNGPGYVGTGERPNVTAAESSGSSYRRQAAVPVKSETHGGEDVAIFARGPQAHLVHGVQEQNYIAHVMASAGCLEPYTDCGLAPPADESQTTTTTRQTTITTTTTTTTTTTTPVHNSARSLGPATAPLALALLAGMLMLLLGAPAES
structure (smiles),measurement,setting,value
Nc1ncnc2c1ncn2[C@H]1O[C@@H](C(=O)OCCO)[C@@H](O)[C@H]1O,AC50,Cytochrome P450 1A2,inconclusive
CC(C)CCN1C[C@@H]2C(CNC(=O)c3cc(Cl)cc(Cl)c3)[C@@H]2C1 (stereo partly drawn),EC50,[1],1.9 µM (active)
O=Nc1ccc(O)c2ncccc12,EC50,[2],8.56 µM (active)
same,CC50,Vero,9.69 µM (active)
same,IC50,Exodeoxyribonuclease V,> 119 µM (inactive)
same,IC50,[3],35.6 µM (inactive)
same,EC50,BJ [4],8.73 µM (active)
same,EC50,BJ [5],12.9 µM (active)
O=C(CSc1n[nH]c(-c2ccc(S(=O)(=O)N3CCCCC3)cc2)n1)Nc1nccs1,IC50,Estrogen receptor,47.2 µM (not active)
same,AC50,CAAX prenyl protease 1,8.82 µM (active)
same,AC50,Trypsin,21.3 µM (active)
Brc1ccc(CSc2nnc(-c3ccccn3)n2Cc2cccs2)cc1,EC50,[6],1.85 µM (active)
same,IC50,[7],> 32 µM (inactive)
same,IC50,Mu-type opioid receptor [8],> 32 µM (inactive)
same,EC50,[9],1.1 µM (active)
same,EC50,[10],> 32 µM (inactive)
same,EC50,Mu-type opioid receptor [11],> 32 µM (inactive)
same,IC50,[12],> 32 µM (inactive)
C/N=c1\scc(-c2ccco2)n1/N=C/c1ccc(O)c(O)c1,IC50,[13],3.56 µM (active)
same,IC50,Large T antigen,25.5 µM (active)
same,EC50,H4,70.2 µM (active)
same,IC50,Protein Tat,> 100 µM (active)
same,IC50,[14],30.3 µM (active)
same,IC50,[15],13.4 µM (active)
same,IC50,[16],1.7 µM (active)
same,IC50,[17],6.81 µM (active)
same,CC50,[18],9.16 µM (active)
same,IC50,[19],29.7 µM (active)
